Where a SMILES comes first, the peptide text is derived from it. The star is where a group is joined. Cbz = O=C(OCc1ccccc1)*
What was measured:
proteasome = experiment: Proteasome activity assay (luciferase substrate) in neurons treated with MG-132; type: cell-based, human
Excerpt: (§1) N=6 separate wells of neurons. (Unpaired t test, P value <0.05). […] N=triplicate wells. Cells are viable after 1 day of treatment at all the concentrations tested and lower concentrations are tolerated for more extended periods of time. […] N=4 separate wells of neurons (Unpaired t test, P value <0.05).
(§2) A previous study established that proteasome inhibition in hMNs could trigger accumulation of mutant SOD-1 (31). It was, therefore, examined whether MG-132-mediated proteasome inhibition affected TDP-43 localization in hMNs as a potential model of sporadic ALS. First, the range and timing of small molecule treatment that could inhibit the proteasome without inducing overt cellular toxicity was established (FIGS. 14A-14D). […] Then a pulse-chase experiment was performed to determine the consequences of proteasome inhibition on TDP-43 localization (FIG. 5A). […] Thus, proteasome inhibition in hMNs induces a TDP-43 mislocalization that is reversible.

motor neurons = experiment: Cell Titer Glo neuronal survival assay; type: cell-based, human
Excerpt: as §1, §2

TDP-43 [1] = experiment: TDP-43 localization by immunostaining, Pearson's correlation with DAPI; type: cell-based, human
Description: as §2
For immunofluorescence, cells were fixed with ice-cold 4% PFA for 15 minutes at 4° C., permeabilized with 0.2% Triton-X in 1×PBS for 45 minutes and blocked with 10% donkey serum in 1×PBS-T (0.1% Tween-20) for 1 hour. Cells were then incubated overnight at 4° C. with primary antibody (diluted in blocking solution). At least 4 washes (5 min incubation each) with 1×PBS-T were carried out, before incubating the cells with secondary antibodies for 1 hour at room temperature (diluted in blocking solution). Nuclei were stained with DAPI. […] Micrographs were analyzed using FIJI software to determine the correlation coefficient.

TDP-43 [2] = experiment: Immunoblot of TDP-43 in detergent-soluble (RIPA) and detergent-insoluble (UREA) fractions; type: cell-based, human
Description: To determine what happened to TDP-43 after proteasome inhibition, TDP-43 levels were examined by immunoblot analysis in both the detergent-soluble and detergent-insoluble fractions. […] Finally, STMN2 levels in neurons treated with either a short-term high dose or a long-term low dose of MG-132 were probed.
For analysis of TDP-43 and STMN2 protein expression levels, d10 MNs were lysed in RIPA buffer (150 mM Sodium Chloride; 1% Triton X-100; 0.5% sodium deoxycholate; 0.1% SDS; 50 mM Tris pH 8.0) containing protease and phosphatase inhibitors (Roche) for 20 min on ice, and centrifuged at high speed. 200 μL of RIPA buffer per well of 24-well culture were routinely used, which yielded ˜20 μg of total protein as determined by BCA (Thermo Scientific). After two washes with RIPA buffer, insoluble pellets were resuspended in 200 μl of UREA buffer (Bio-Rad). For immunoblot assays 2-3 μg of total protein were separated by SDS-PAGE (BioRad), transferred to PDVF membranes (BioRad) and probed with antibodies against TDP-43 (1:1000, ProteinTech Group), GAPDH (1:1000, Millipore) and STMN2 (1:3000, Novus). Insoluble pellets were loaded based on protein concentration of correspondent RIPA-soluble counterparts. […] GAPDH levels were used to normalized each sample, and LiCor software was used to quantitate protein band signal.

STMN2 transcript = experiment: qRT-PCR analysis of STMN2 expression in hMNs; type: cell-based, human; details: either a short-term high dose or a long-term low dose, both cases
Description: Total RNA was isolated from d10 MNs for RNA-Seq experiments and validation assays using Trizol LS (Invitrogen) according to manufacturer's instructions. 500 μL were added per well of the 24-well cultures. A total of 300-1000 ng of total RNA was used to synthesize cDNA by reverse transcription according to the iSCRIPT kit (Bio-rad). Quantitative RT-PCR (qRT-PCR) was then performed using SYBR green (Bio-Rad) and the iCycler system (Bio-rad). Quantitative levels for all genes assayed were normalized using GAPDH expression. […] All primer sequences are available upon request. For next-generation RNA sequencing (RNA-Seq), at least two technical replicas per siRNA sample or AAVS1-TDP43 genotype were included in the analyses. After RNA extraction, samples with RNA integrity numbers (RIN) above 7.5, determined by a bioAnalyzer, were used for library preparation. In brief, RNA sequencing libraries were generated from ˜250 ng of total RNA using the illumina TruSeq RNA kit v2, according to the manufacturer's directions. Libraries were sequenced at the Harvard Bauer Core Sequencing facility on a HiSeq 2000 platform. All FASTQ files were analyzed using the bcbioRNASeq workflow and toolchain (90). The FASTQ files were aligned to the GRCh37/hg19 reference genome. Differential expression testing was performed using DESeq2 suite of bioinformatics tools (38). […]

STMN2 cryptic exon = experiment: RT-PCR detection of STMN2 cryptic exon in hMNs; type: cell-based, human; details: hMNs treated with proteasome inhibitor
Excerpt: TDP-43 plays an important role in the nucleus regulating RNA splicing, and recent studies highlight its ability to suppress non-conserved or cryptic exons to maintain intron integrity (80). When cryptic exons are included in RNA transcripts, in many cases, their inclusion can affect normal levels of the gene product by disrupting its translation or by promoting nonsense-mediated decay (80). […] The sequencing data was examined for evidence of cryptic exons in genes observed to be reproducibly regulated by TDP-43 in human cancer cells (81). […] To accomplish this goal, an RT-PCR assay was developed to detect transcripts containing the cryptic exon (FIG. 5F). […] Total RNA was isolated from neurons using RNeasy Mini Kit (Qiagen) according to manufacturer's instructions. A total of 300-1000 ng of total RNA was used to synthesize cDNA by reverse transcription according to the iSCRIPT kit (Bio-rad). RT-PCR was then performed using one cryptic exon-specific primer and then analyzed using the Agilent 2200 Tapestation.

STMN2 mRNA = STMN2 mRNA expression in HUES3, IG2 and CN7 cell lines stressed with MG132; type: cell-based, human
Description: Three cell lines, HUES3, IG2 (Stmn2 KO), and CN7 (cryptic exon deletion) were treated with normal media or media+1 uM MG132 for 24 hours to stress the cells. In HUES3 cells, the stressed condition had 52% STMN2 mRNA expression compared to the unstressed condition. In IG2 (Stmn2 KO) condition, unstressed cells had 13% expression, and when stressed, expression increased to 42%. […] It was shown that if several exons are knocked out the expression goes down, but if the TDP-43 binding site is removed, expression goes way up.

hMNs = experiment: Neurite outgrowth assay (Sholl analysis) of hMNs; type: cell-based, human; details: STMN2+/+ hMNs, 10 μM
Description: Given the reported role of STMN2 in regulating axonal growth by promoting the dynamic instability of microtubules (77), phenotypic assays were carried out characterizing neurite outgrowth in the STMN2−/− hMNs. After 7 days in culture, sorted hMNs were fixed and stained for β-III-tubulin to label the neuronal processes (FIG. 4E).
Individual Tuj1-positive neurons used for Sholl analyses were randomly selected and imaged using a Nikon Eclipse TE300 with a 40× objective. The neurites were traced using the ImageJ (NIH) plugin NeuronJ (78), and Sholl analysis was performed using the Sholl tool of Fiji (96), quantifying the number of intersections at 10-μm intervals from the cell body. Statistical analysis was performed by comparing the number of intersections of KO clones with the parental WT line for each 10-μm interval using Prism 6 (Graph Pad, La Jolla, CA, USA). Significance was assessed by a standard Student's t-test, with a p value of p<0.05 considered as significant.

STMN2 transcripts = experiment: ASO effect on STMN2 cryptic exon and full length transcripts during TDP-43 depletion; type: cell-based

CC(C)C[C@@H](C=O)NC(=O)[C@H](CC(C)C)NC(=O)[C@H](CC(C)C)NC(=O)OCc1ccccc1 [MG-132] (Cbz-Leu-Leu-Leu-aldehyde)
proteasome activity (proteasome; neurons treated with MG-132, N=4 wells (FIG. 14E)): significantly decreased proteasome activity
proteasome activity (proteasome; overnight 1 μM treatment of hMNs): less than 10 % of normal activity
cell viability (neuronal survival) (motor neurons; 1 day of treatment, all concentrations tested (FIG. 14D)): viable
tolerance of neurons to treatment without overt cellular toxicity (motor neurons; overnight 1 μM treatment): could withstand
TDP-43 staining following washout (TDP-43 [1]; 4 days after washout of 24 hour 1 μM pulse): indistinguishable to unchallenged neurons
TDP-43 staining in the nucleus (TDP-43 [1]; after 24 hour 1 μM pulse): greatly diminished
TDP-43 levels in soluble lysates (TDP-43 [2]; control neurons, low dose, detergent-soluble (RIPA) fraction): significantly decreased
TDP-43 in UREA (insoluble) fraction (TDP-43 [2]; detergent-insoluble fraction): become insoluble
STMN2 mRNA levels (STMN2 transcript): significant decreases
transcripts containing the STMN2 cryptic exon (PCR product) (STMN2 cryptic exon): presence of transcripts containing the STMN2 cryptic exon
STMN2 mRNA expression (STMN2 mRNA; CN7 (Cryptic Exon Deletion) cells, 1 uM for 24 hours (stressed)): 473%
STMN2 mRNA expression (STMN2 mRNA; HUES3 cells, 1 uM for 24 hours, compared to the unstressed condition): 52%
STMN2 mRNA expression (STMN2 mRNA; IG2 (Stmn2 KO) cells, 1 uM for 24 hours (stressed)): 42%

C[C@@H](N)[C@H]1CC[C@H](C(=O)Nc2ccncc2)CC1 [Y-27632]
neurite outgrowth (hMNs): enhancing the outgrowth

CC(C)C[C@H](NC(=O)[C@H](Cc1ccccc1)NC(=O)c1cnccn1)B(O)O [Bortezomib]
transcripts containing the STMN2 cryptic exon (PCR product) (STMN2 cryptic exon): presence of transcripts containing the STMN2 cryptic exon

TCTTCAGTATTGCTATTCAT (2'-MOE nucleotides, further chemistry not given here) [ASO (SEQ ID NO: 11), antisense oligonucleotide targeting the abortive or altered STMN2 RNA]
ability to decrease the abundance of cryptic exon containing transcripts (STMN2 transcripts; 2.5 μM (FIG. 69A)): effectiveness
ability to increase the abundance of full length STMN2 transcripts (STMN2 transcripts; 2.5 μM, during TDP-43 depletion (FIG. 69B)): effectiveness
